Consider ten molecules from patent publication US9862686B2, “N1-sulfonyl-5-fluoropyrimidinone derivatives” (Adama Makhteshim Ltd., priority 2009, dated 2018).

Data set [1] relates to Mycosphaerella graminicola; Anamorph: Septoria tritici; Bayer Code SEPTTR. Put plainly: Fungicidal activity: leaf blotch of wheat, protectant and curative treatment of inoculated wheat plants. As to conditions: Zymoseptoria tritici. The data set is classed as in vivo. How it is done:
Evaluation of Fungicidal Activity: Leaf Blotch of Wheat (Mycosphaerella graminicola; Anamorph: Septoria tritici; Bayer Code SEPTTR)
Wheat plants (variety Yuma) were grown from seed in a greenhouse in 50% mineral soil/50% soil-less Metro mix until the first leaf was fully emerged, with 7-10 seedlings per pot. These plants were inoculated with an aqueous spore suspension of Septoria tritici either prior to or after fungicide treatments. After inoculation the plants were kept in 100% relative humidity (one day in a dark dew chamber followed by two to three days in a lighted dew chamber) to permit spores to germinate and infect the leaf. The plants were then transferred to a greenhouse for disease to develop.
The following table presents the activity of typical compounds of the present disclosure when evaluated in these experiments. The effectiveness of the test compounds in controlling disease was determined by assessing the severity of disease on treated plants, then converting the severity to percent control based on the level of disease on untreated, inoculated plants.
In each case of Table II the rating scale is as follows: […]

[2] abbreviates: 24 h, One-Day Protectant (1DP), 100 ppm, wheat plants (variety Yuma), percent control vs untreated inoculated plants, read-out: SEPTTR 100 PPM 1DP (% Disease Control rating).
[3] abbreviates: 72 h, Three-Day Curative (3DC), 100 ppm, wheat plants (variety Yuma), percent control vs untreated inoculated plants, read-out: SEPTTR 100 PPM 3DC (% Disease Control rating).
Setting [4] is: 24 h, read-out: SEPTTR 100 PPM 1DP (% Disease Control rating).
[5] abbreviates: 72 h, read-out: SEPTTR 100 PPM 3DC (% Disease Control rating).

Where two headings read alike, the source gives them in different places.

Take `Cc1ccc(C(=O)Nc2nc(=O)n(S(=O)(=O)c3ccc(Cl)cc3)cc2F)cc1` [Cmpd 39]: the melting point (commonly the temperature, or range, at which the solid turns liquid) lay in the range of 156 to 158 °C. In addition, the pest or weed control at 100 ppm in data set [1] (setting [2]) was 0 to 25%. In addition, in data set [1] (setting [3]), the pest or weed control at 100 ppm was 76 to 100%.

The molecule `O=C(Nc1ccccc1)Nc1nc(=O)n(S(=O)(=O)c2ccccc2)cc1F` [Cmpd 40, 1-(1-benzenesulfonyl-5-fluoro-2-oxo-1,2-dihydropyrimidin-4-yl)-3-phenylurea] registered a melting point of 210 to 214 °C. In addition, the pest or weed control at 100 ppm in data set [1] (setting [4]) was in the range of 0 to 25%. Moreover, the pest or weed control at 100 ppm in data set [1] (setting [5]) lay in the range of 26 to 50%.

For `O=C(Nc1ccccc1)Nc1nc(=O)n(S(=O)(=O)c2c(Cl)cccc2Cl)cc1F` [Cmpd 42], the melting point is 205 to 210 °C. Besides, in data set [1] (setting [2]), the pest or weed control at 100 ppm was in the range of 0 to 25%. Moreover, the pest or weed control at 100 ppm in data set [1] (setting [3]) lay in the range of 26 to 50%.

The molecule `COc1ccc(S(=O)(=O)n2cc(F)c(NC(=O)Nc3ccccc3)nc2=O)cc1` [Cmpd 43] showed a melting point of 185 to 191 °C. Besides, the pest or weed control at 100 ppm in data set [1] (setting [2]) was 0 to 25%. The pest or weed control at 100 ppm in data set [1] (setting [3]) fell in the range of 26 to 50%.

In turn, `O=c1nc(NC(=S)Nc2ccccc2)c(F)cn1S(=O)(=O)c1ccccc1` [Cmpd 44, (1-benzenesulfonyl-5-fluoro-2-oxo-1,2-dihydropyrimidin-4-yl)-3-phenylthiourea] showed a melting point of 205 to 208 °C. Moreover, in data set [1] (setting [4]), the pest or weed control at 100 ppm lay within 0 to 25%. The pest or weed control at 100 ppm in data set [1] (setting [5]) fell in the range of 26 to 50%.

Turning to `COc1ccc(S(=O)(=O)n2cc(F)c(NC(=S)Nc3ccccc3)nc2=O)cc1` [Cmpd 45], the melting point lay in the range of 190 to 195 °C. In data set [1] (setting [2]), the pest or weed control at 100 ppm was in the range of 26 to 50%. Besides, in data set [1] (setting [3]), the pest or weed control at 100 ppm fell in the range of 51 to 75%.

With `O=c1nc(NC(=S)Nc2ccccc2)c(F)cn1S(=O)(=O)c1cccs1` [Cmpd 46], the melting point was in the range of 182 to 185 °C. Further, the pest or weed control at 100 ppm in data set [1] (setting [2]) lay in the range of 0 to 25%. In addition, the pest or weed control at 100 ppm in data set [1] (setting [3]) was 26 to 50%.

`O=C(Nc1nc(=O)n(S(=O)(=O)c2ccccc2)cc1F)Oc1ccccc1` [Cmpd 47, (1-benzenesulfonyl-5-fluoro-2-oxo-1,2-dihydropyrimidin-4-yl)carbamic acid phenyl ester]: the melting point lay in the range of 182 to 185 °C. Also, the pest or weed control at 100 ppm in data set [1] (setting [4]) lay within 51 to 75%. Besides, the pest or weed control at 100 ppm in data set [1] (setting [5]) is 76 to 100%.

Molecule `COc1ccc(S(=O)(=O)n2cc(F)c(NC(=O)Oc3ccccc3)nc2=O)cc1` [Cmpd 49] gave a melting point of 138 to 142 °C. The pest or weed control at 100 ppm in data set [1] (setting [4]) is 0 to 25%. The pest or weed control at 100 ppm in data set [1] (setting [5]) fell in the range of 76 to 100%.

In the case of `O=C(Nc1nc(=O)n(S(=O)(=O)c2c(Cl)cccc2Cl)cc1F)Oc1ccccc1` [Cmpd 50], the melting point fell in the range of 199 to 203 °C. In data set [1] (setting [4]), the pest or weed control at 100 ppm lay within 76 to 100%. Further, the pest or weed control at 100 ppm in data set [1] (setting [5]) lay within 76 to 100%.
